In US20230011571A1, “SMALL MOLECULE FURIN INHIBITORS FOR TREATING INFECTIOUS DISEASES” (BP Asset V, Inc., priority 2019, published 2023):

Tests used:
Assay type in all cases: cell-based
[1] = test system: dengue virus (DENV); experiment: microbe, parasite or virus in culture; conditions: Dengue virus, Vero, 120 h, read-out: Percent viral inhibition DENY
[2] = test system: Marburg virus (MARV); experiment: organism not typed; conditions: Vero, 72 h, read-out: Percent viral inhibition MARV
[3] = test system: Chikungunya virus (CHIKV); experiment: microbe, parasite or virus in culture; conditions: Chikungunya virus, Vero, 48 h, read-out: Percent viral inhibition CHKV

| Compound | inhibition at 1 µM [1] | inhibition at 1 µM [2] | inhibition at 1 µM [3] |
| --- | --- | --- | --- |
| CN1CCCN(c2ccc(Oc3cc(CN4CCC(CC(=O)O)CC4)cc(-c4cc(Cl)cc(Cl)c4)n3)cn2)CC1 [Example 156, 2-(1-((2-(3,5-dichlorophenyl)-6-((6-(4-methyl-1,4-diazepan-1-yl)pyridin-3-yl)oxy)pyridin-4-yl)methyl)piperidin-4-yl)acetic acid] | 43.9% | 13.2% | 38.4% |
| CC(=O)NCC1CCN(Cc2cc(Oc3ccc(N4CCN(C)CC4)nn3)nc(-c3cc(Cl)cc(Cl)c3)c2)CC1 [Example 157, N-((1-((2-(3,5-dichlorophenyl)-6-((6-(4-methylpiperazin-1-yl)pyridazin-3-yl)oxy)pyridin-4-yl)methyl)piperidin-4-yl)methyl)acetamide] | 53.4% | 77.5% | 25.3% |
| NC1CCN(c2ncc(Oc3cc(CN4CCC(CC(=O)O)CC4)cc(-c4cc(Cl)cc(Cl)c4)n3)cn2)CC1 [Example 158, 2-(1-((2-((2-(4-aminopiperidin-1-yl)pyrimidin-5-yl)oxy)-6-(3,5-dichlorophenyl)pyridin-4-yl)methyl)piperidin-4-yl)acetic acid] | 19.3% | 18% | 2.85% |
| C[C@H]1CN(c2ncc(Oc3cc(CN4CCC(CC(=O)O)CC4)cc(-c4cc(Cl)cc(Cl)c4)n3)cn2)CCN1 [Example 159, (S)-2-(1-((2-(3,5-dichlorophenyl)-6-((2-(3-methylpiperazin-1-yl)pyrimidin-5-yl)oxy)pyridin-4-yl)methyl)piperidin-4-yl)acetic acid] | 17.5% | 49.8% | 22.9% |
| CC1(C)CN(c2ncc(Oc3cc(CN4CCC(CC(=O)O)CC4)cc(-c4cc(Cl)cc(Cl)c4)n3)cn2)CCN1 [Example 160, 2-(1-((2-(3,5-dichlorophenyl)-6-((2-(3,3-dimethylpiperazin-1-yl)pyrimidin-5-yl)oxy)pyridin-4-yl)methyl)piperidin-4-yl)acetic acid] | 49.5% | 35.1% | 21.7% |
| O=C(O)CC1CCN(Cc2cc(Oc3cnc(N4CC5CNCC5C4)nc3)nc(-c3cc(Cl)cc(Cl)c3)c2)CC1 (stereo not drawn) [Example 161, 2-(1-((2-(3,5-dichlorophenyl)-6-((2-(hexahydropyrrolo[3,4-c]pyrrol-2(1H)-yl)pyrimidin-5-yl)oxy)pyridin-4-yl)methyl)piperidin-4-yl)acetic acid] | 33% | 44.9% | 28.5% |
| O=C(O)CC1CCN(Cc2cc(Oc3cnc(N4CC5CC(C4)N5)nc3)nc(-c3cc(Cl)cc(Cl)c3)c2)CC1 [Example 162, 2-(1-((2-((2-(3,6-diazabicyclo[3.1.1]heptan-3-yl)pyrimidin-5-yl)oxy)-6-(3,5-dichlorophenyl)pyridin-4-yl)methyl)piperidin-4-yl) acetic acid] | 41.4% | 72.8% | 30.8% |
| O=C(O)CC1CCN(Cc2cc(Oc3cnc(N4CC5CCC(C4)N5)nc3)nc(-c3cc(Cl)cc(Cl)c3)c2)CC1 [Example 163, 2-(1-((2-((2-(3,8-diazabicyclo[3.2.1]octan-3-yl)pyrimidin-5-yl)oxy)-6-(3,5-dichlorophenyl)pyridin-4-yl)methyl)piperidin-4-yl)acetic acid] | 32.5% | 34.4% | 22% |
| O=C(O)CC1CCN(Cc2cc(Oc3cnc(N4CCNC5(CC5)C4)nc3)nc(-c3cc(Cl)cc(Cl)c3)c2)CC1 [Example 164, 2-(1-((2-((2-(4,7-diazaspiro[2.5]octan-7-yl)pyrimidin-5-yl)oxy)-6-(3,5-dichlorophenyl)pyridin-4-yl)methyl)piperidin-4-yl)acetic acid] | 45.5% | 36.1% | 34.6% |
| NC1(CO)CCN(c2ncc(Oc3cc(CN4CCC(CC(=O)O)CC4)cc(-c4cc(Cl)cc(Cl)c4)n3)cn2)CC1 [Example 165, 2-(1-((2-((2-(4-amino-4-(hydroxymethyl)piperidin-1-yl)pyrimidin-5-yl)oxy)-6-(3,5-dichlorophenyl)pyridin-4-yl)methyl)piperidin-4-yl) acetic acid] | 36.9% | 50.9% | 18.6% |
| O=C(O)CC1CCN(Cc2cc(Oc3ccc(N4CCCNCC4)nc3)nc(-c3cc(Cl)cc(Cl)c3)c2)CC1 [Example 166, 2-(1-((2-((6-(1,4-diazepan-1-yl)pyridin-3-yl)oxy)-6-(3,5-dichlorophenyl)pyridin-4-yl)methyl)piperidin-4-yl) acetic acid] | 21.3% | 45% | 35.3% |
| CC(=O)NCC1CCN(Cc2cc(Oc3cnc(N4CCN(CCS(C)(=O)=O)CC4)nc3)cc(-c3cc(Cl)cc(Cl)c3)c2)CC1 [Example 167, N-((1-((3′,5′-dichloro-5-((2-(4-(2-(methylsulfonyl)ethyl)piperazin-1-yl)pyrimidin-5-yl)oxy)-[1,1′-biphenyl]-3-yl)methyl)piperidin-4-yl)methyl)acetamide] | 41.3% | 0% | 0% |
| CC(=O)NCC1CCN(Cc2cc(Oc3cnc(N4CCN(CCC(=O)O)CC4)nc3)cc(-c3cc(Cl)cc(Cl)c3)c2)CC1 [Example 168] | 38.9% | 60.3% | 29.6% |
| CC(=O)NCC1CCN(Cc2cc(Oc3ccc(N4CCN(CCC(=O)O)CC4)nn3)nc(-c3cc(Cl)cc(Cl)c3)c2)CC1 [Example 169, 3-(4-(6-((4-((4-(acetamidomethyl)piperidin-1-yl)methyl)-6-(3,5-dichlorophenyl)pyridin-2-yl)oxy)pyridazin-3-yl)piperazin-1-yl)propanoic acid] | 0% | 16.4% | 0% |
| CC(=O)NCC1CCN(Cc2cc(Oc3cnc(N4CCN(CCC(N)=O)CC4)nc3)cc(-c3cc(Cl)cc(Cl)c3)c2)CC1 [Example 170, 3-(4-(5-((5-((4-(acetamidomethyl)piperidin-1-yl)methyl)-3′,5′-dichloro-[1,1′-biphenyl]-3-yl)oxy)pyrimidin-2-yl)piperazin-1-yl)propanamide] | 57.6% | 10.3% | 7.29% |
| CNC(=O)NCC1CCN(Cc2cc(Oc3cnc(N4CCN(CCCO)CC4)nc3)nc(-c3cc(Cl)cc(Cl)c3)c2)CC1 [Example 171, 1-((1-((2-(3,5-dichlorophenyl)-6-((2-(4-(3-hydroxypropyl)piperazin-1-yl)pyrimidin-5-yl)oxy)pyridin-4-yl)methyl)piperidin-4-yl)methyl)-3-methylurea] | 41.7% | 0% | 0% |
| O=C(O)CC1CCN(Cc2cc(Oc3cnc(N4CCN(CC(O)CO)CC4)nc3)nc(-c3cc(Cl)cc(Cl)c3)c2)CC1 (stereo not drawn) [Example 177, 2-(1-((2-(3,5-dichlorophenyl)-6-((2-(4-(2,3-dihydroxypropyl)piperazin-1-yl)pyrimidin-5-yl)oxy)pyridin-4-yl)methyl)piperidin-4-yl)acetic acid] | 24% | 37% | 14.3% |
| CC(=O)NCC1CCN(Cc2cc(Oc3ccc(N4CC[N+](C)([O-])CC4)nc3)nc(-c3cc(Cl)cc(Cl)c3)c2)CC1 [Example 178, 4-(5-((4-((4-(acetamidomethyl)piperidin-1-yl)methyl)-6-(3,5-dichlorophenyl)pyridin-2-yl)oxy)pyridin-2-yl)-1-methylpiperazinel-oxide] | 71.1% | 57.7% | 30.4% |
| CC(=O)NCC1CCN(Cc2cc(Oc3ccc(N4CC[N+](CCO)(CCO)CC4)nc3)nc(-c3cc(Cl)cc(Cl)c3)c2)CC1 [Example 179, 4-(5-((4-((4-(acetamidomethyl)piperidin-1-yl)methyl)-6-(3,5-dichlorophenyl)pyridin-2-yl)oxy)pyridin-2-yl)-1,1-bis(2-hydroxyethyl) piperazin-1-ium] | 42.1% | 27.4% | 5.87% |
| CC(=O)NCC1CCN(Cc2cc(Oc3ccc(N4CCN(CCO)CC4)nc3)nc(-c3cc(Cl)cc(Cl)c3)c2)CC1 [Example 180, N-((1-((2-(3,5-dichlorophenyl)-6-((6-(4-(2-hydroxyethyl)piperazin-1-yl)pyridin-3-yl)oxy)pyridin-4-yl)methyl)piperidin-4-yl)methyl)acetamide] | 10.4% | 25.4% | 0% |
| CC(=O)NCC1CCN(Cc2cc(Oc3ccc(N4CC[N+](C)(C)CC4)nc3)nc(-c3cc(Cl)cc(Cl)c3)c2)CC1 [Example 181, 4-(5-((4-((4-(acetamidomethyl)piperidin-1-yl)methyl)-6-(3,5-dichlorophenyl)pyridin-2-yl)oxy)pyridin-2-yl)-1,1-dimethylpiperazin-1-ium] | 49.1% | 12.5% | 11.7% |
| CC(=O)NCC1CCN(Cc2cc(Oc3ccc(N4C[C@@H]5C[C@H]4CN5CCS(C)(=O)=O)nc3)nc(-c3cc(Cl)cc(Cl)c3)c2)CC1 [Example 183, N-((1-((2-(3,5-dichlorophenyl)-6-((6-((1S,4S)-5-(2-(methylsulfonyl)ethyl)-2,5-diazabicyclo[2.2.1]heptan-2-yl)pyridin-3-yl)oxy)pyridin-4-yl)methyl)piperidin-4-yl)methyl)acetamide] | 21% | 74.8% | 16.4% |
| CC(=O)NCC1CCN(Cc2cc(Oc3ccc(N4C[C@H]5CC[C@@H](C4)N5CCC(=O)O)nc3)nc(-c3cc(Cl)cc(Cl)c3)c2)CC1 [Example 185, 3-((1R,5S)-3-(5-((4-((4-(acetamidomethyl)piperidin-1-yl)methyl)-6-(3,5-dichlorophenyl)pyridin-2-yl)oxy)pyridin-2-yl)-3,8-diazabicyclo[3.2.1]octan-8-yl) propanoic acid] | 0% | 64.2% | 22.9% |
